# In patent US20010034319A1, “Photothermal vascular targeting with bioreductive agents” (priority 1999, published 2001):
# Assays:
# normal skin tissue = assay: POR with PDL treatment of normal skin tissue, histologic evaluation (Example VII); assay type: in vivo, Syrian golden hamsters; conditions: PDL 15 min. after ip POR; biopsies 10 min. or 2 days after irradiation; hamster flank
# Protocol: The effect on normal skin tissue of PDL irradiation with or without POR was determined using 6 adult Syrian golden hamsters. The hamsters were divided into two groups, and hair of each animal was shaved from an area of the flank. One group was irradiated with the PDL 15 min. after ip injection of POR, and the other group was irradiated without POR administration. Biopsies of treated sites were taken 10 min. or 2 days after irradiation. Specimens were fixed with formalin, embedded in paraffin, sectioned, and stained (H&E) for histologic evaluation.
# [1] = tested on: KB cells (human pharyngeal SCC); assay: POR with PDL limited to tumor area, KB tumors in nude mice (Example V); assay type: in vivo; conditions: for effect of treatment on mean tumor volume (analysis of variance): repeated two days later, FIG. 2
# Protocol: (§1) KB cells (human pharyngeal SCC, American Type Culture Collection, Rockville, Md.) were maintained in culture medium consisting of 90% Minimal Essential medium (Gibco BRL, Grand Island, N.Y.) and 10% fetal bovine serum (Hyclone, Logan, Utah) with the addition of […] nonessential amino acid (Gibco BRL) and antibiotics (penicillin, streptomycin: Gibco BRL). The cells were grown as monolayers in Falcon T150 flasks (Becton Dickinson, Franklin Lakes, N.J.) in a 37° C. humidified incubator with 5% CO2.
# (§2) Prior to inoculation, the cells were rinsed with PBS lacking calcium and magnesium (Gibco BRL), trypsinized (Gibco BRL), counted, centrifuged at 1000 rpm for 6 min., and resuspended in normal saline for a final concentration of 1,000,000 cells/ml.
# (§3) Six- to seven-week-old nude mice (Charles River Labs, Wilmington, Mass.) were sterilely housed and fed ad libitum. Intradermal inoculation of 0.05 ml of cell suspension (50,000 cells) was performed under general anesthesia (ether) using a 30 gauge hypodermic needle. After 5 days, the majority of the tumors were visually apparent and palpable.
# (§4) The effect of treatment on tumor volumes was determined using analysis of variance. Multiple comparisons were performed using the Student-Newman-Keuls (SNK) test. P values less than 0.05 are considered significant.
# Sixteen mice, each with 4 tumor inoculations, were divided into 3 treatment groups and 1 control group. On day 6 following tumor inoculation, the treatment groups received (1) ip POR only (10 mg/kg), (2) ip saline and PDL limited to tumor area (585 nm, 10 J/cm^2, 300-500 μs; Model SPTL-1a, Candela Corporation, Wayland, Mass.), or (3) ip POR (10 mg/kg) and PDL limited to the tumor area (585 nm, 10 J/cm^2, 300-500 μs). The control group received ip saline injections only. PDL irradiation was performed 15 min. after administration of POR or vehicle, using a laser handpiece that produced a 5 mm diameter irradiated spot with a uniform energy distribution on the tumor surface. An aluminum plate with holes of various diameters was used to shield areas beyond the tumor border. […]
# [2] = tested on: KB cells (human pharyngeal SCC); assay: Effect of POR alone on KB tumor volume in nude mice (Example IV); assay type: in vivo; conditions: POR alone 2.50, 5.0, 7.5, 10.0 mg/kg ip vs saline control; days 0-13; FIG. 1
# Protocol: KB cells (human pharyngeal SCC, American Type Culture Collection, Rockville, Md.) were maintained in culture medium consisting of 90% Minimal Essential medium (Gibco BRL, Grand Island, N.Y.) and 10% fetal bovine serum (Hyclone, Logan, Utah) with the addition of 10 nM nonessential amino acid (Gibco BRL) and antibiotics (penicillin, streptomycin: Gibco BRL). The cells were grown as monolayers in Falcon T150 flasks (Becton Dickinson, Franklin Lakes, N.J.) in a 37° C. humidified incubator with 5% CO2.
# The effect of treatment on tumor volumes was determined using analysis of variance. […]
# Fifteen mice, each with 4 tumor inoculations, were divided into 4 treatment groups and 1 control group. […] The 3 orthogonal diameters of the tumors were measured at days 0, 2, 4, 6, 8, 10, and 13 following POR injection. […]
# hypoxic cells = conditions: compared with mitomycin C; cited from earlier work
# [3] = tested on: human squamous cancer cells; assay: PDL and POR on human squamous cancer cell tumors in hamster cheek pouch (Example VIII); assay type: in vivo, hamsters; conditions: combined PDL (588 nm) and POR versus PDL only, FIG. 5
# Description: In this example, tumors were produced in the cheek pouches of hamsters by transplantation of human squamous cancer cells according to methods well known in the art. Hamsters were divided into four treatment groups: (1) control, (2) bioreductive agent porfiromycin only (POR), (3) 588 nm pulsed dye laser only (PDL), and (4) combined PDL and POR.
# [4] = Body weight / systemic toxicity monitoring of POR in tumor-bearing mice (Example IV); conditions: POR 2.50-10.0 mg/kg ip; mice weighed days 0-13
# Protocol: Fifteen mice, each with 4 tumor inoculations, were divided into 4 treatment groups and 1 control group. Five days after tumor inoculation, the 4 treatment groups received 2.50, 5.0, 7.5, and 10.0 mg/kg intraperitoneal (ip) injections of POR (Vion Pharmaceuticals, Inc., New Haven, Conn.) dissolved in sterile water. […] All mice were anesthetized during ip injections and tumor measurements. […] The mice were weighed at the time of each tumor measurement to monitor for any systemic toxicity of POR.
# [5] = tested on: KB cells (human pharyngeal SCC); assay: POR with PDL extending beyond tumor area, KB tumors in nude mice (Example VI); assay type: in vivo
# Protocol: as §1, §2, §3, §4
# Twelve mice with 6 tumor inoculations were divided into 3 treatment groups and 1 control group. On day 5 following inoculation, the 4 groups were treated as in Example V except that the field of irradiation was extended to include a 2 to 3 mm periphery beyond the tumor edge. In addition, on the second treatment day, the fluence was raised from 10 to 15 J/cm^2. Tumor volume measurements were performed on days 0, 2, 4, 6, 8, 10, and 12 following the first treatment. Mice were weighed on day 0 and 6 following the first treatment. There were two anesthesia related deaths: one mouse from the control group and one mouse from the group receiving both PDL and POR died before day 10 and were therefore excluded from analysis.
smiles,measurement,setting,value
"CO[C@@]12[C@H](COC(N)=O)C3=C(C(=O)C(C)=C(N)C3=O)N1C[C@H]1[C@@H]2N1C (stereo partly drawn) [POR, porfiromycin]",damage to normal skin after PDL irradiation (histologic and clinical),normal skin tissue,no microscopic or clinical evidence of epithelial necrosis or other damage to tissue structures beyond the blood vessels
same,effect of treatment on mean tumor volume (analysis of variance),"[1]; ip POR 10 mg/kg and PDL limited to tumor area (585 nm, 10 J/cm^2)",no significant effect of treatment at any point in time
same,skin sloughing / epithelial necrosis in laser treatment groups,"[1]; ip POR 10 mg/kg and PDL limited to tumor area, gross and histological",no gross evidence of skin sloughing or any histological evidence of epithelial necrosis
same,effect of treatment on mean tumor volume (analysis of variance),"[1]; ip POR only 10 mg/kg, days 0-13",no significant effect of treatment at any point in time
same,effect of treatment on mean tumor volume (analysis of variance),[2],no significant effect of treatment at any point in time
same,preferential toxicity for hypoxic cells,hypoxic cells,greater for POR than mitomycin C
same,tumor regression and remission,[3],tumor regression and remission following laser vascular targeting is enhanced
same,effect of treatment on body weight / acute toxicity,[4],"no significant effect of treatment on body weight, or any other indication of acute toxicity"
same,tumor volume versus controls (SNK test),"[5]; POR 10 mg/kg ip with PDL including 2 to 3 mm margin (10 then 15 J/cm^2), all tumors, FIG. 3",differed from the controls from day 6 onward
same,tumor volume versus controls (SNK test),"[5]; POR alone 10 mg/kg ip, all tumors, FIG. 3",differed from the controls from day 6 onward
same,"tumor volume, PDL with POR versus PDL without POR","[5]; all tumors, PDL including tumor margin, FIG. 3",no significance between the effects of PDL irradiation with and without POR at any time
same,"tumor volume, PDL with POR versus PDL without POR (SNK test)","[5]; only the largest 33% of tumors on day 0, PDL including tumor margin, FIG. 4",significant difference between PDL with and without POR at all days after day 6
